The record followed here is ChEMBL document CHEMBL1201862, “PubChem BioAssay data set” (2004).

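The compound was tested at five concentrations on cells cultured in 96-well plates, with a 48-hour exposure period. The concentration for 50% growth inhibition is given as GI50.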 Active and inactive are the calls of the source. Cut-off read from the data, not from the text of the source: active = GI50 up to about 1.1 µM and inactive = higher.

Some test systems named below: A498; T47D; SNB-19; OVCAR-3; MCF7; NCI-H522; HL-60; PC-3; BT-549; KM12; UACC-62; MOLT-4; CCRF-CEM; LXFL 529; SNB-75; OVCAR-5; OVCAR-4; M14; U-251; COLO 205.
Holding throughout (experiment): NCI tumour cell line growth inhibition, 48 h

For `CN(O)C(=S)c1ccccc1`, the GI50 with A498 is 20.2 µM (inactive); with T47D, 16.4 µM (inactive); with SNB-19, 30.2 µM (inactive); in the test with OVCAR-3 it was 2.45 µM (inactive); in the test on MCF7 it was 1.1 µM (active); in the test with NCI-H522, 0.0944 µM (active). The GI50 is 0.233 µM (active) with HL-60; 3.23 µM (inactive) in the test with PC-3; > 100 µM (inactive) with BT-549; 5.86 µM (inactive) in the test on KM12; 1.85 µM (inactive) in the test with UACC-62; 0.325 µM (active) in the test with MOLT-4. The GI50 with CCRF-CEM is 0.105 µM (active); in the test on LXFL 529 it was 0.379 µM (active); with SNB-75, 4.31 µM (inactive); in the test on OVCAR-5 it was 78.5 µM (inactive); in the test with OVCAR-4 it was 1.88 µM (inactive); in the test with M14, 3.98 µM (inactive). The GI50 with U-251 was 3.18 µM (inactive); in the test on COLO 205, 0.379 µM (active).
`O=CN/C=C/c1ccccc1`: the GI50 with A498, in the test with SNB-19, in the test with OVCAR-3, in the test with NCI-H522, in the test with HL-60 and in the test on PC-3 was > 100 µM (inactive) in each case. For the same compound, the GI50 in the test on KM12, with UACC-62, with MOLT-4, with CCRF-CEM, in the test with LXFL 529 and with SNB-75 was > 100 µM (inactive) in each case. For the same compound, the GI50 in the test with OVCAR-5 was > 100 µM (inactive); with OVCAR-4, > 100 µM (inactive); in the test with M14, > 100 µM (inactive); in the test on U-251, > 100 µM (inactive); in the test on COLO 205, > 63.2 µM (inactive).
Take `O=C(O/N=C1/CCC/C1=C\c1ccccc1)c1ccc(Cl)cc1`: the GI50 with A498 was > 60.4 µM (inactive); with SNB-19 it was > 100 µM (inactive); with OVCAR-3, 36 µM (inactive); in the test with NCI-H522, > 58.2 µM (inactive); with HL-60 it was > 56.1 µM (inactive); with KM12, > 100 µM (inactive). In addition, the GI50 in the test on UACC-62 is > 80.4 µM (inactive); in the test on MOLT-4 it was > 100 µM (inactive); with CCRF-CEM it was > 100 µM (inactive); in the test with LXFL 529, 47.4 µM (inactive); with SNB-75, 21.7 µM (inactive); in the test with OVCAR-5 it was > 100 µM (inactive). The GI50 with OVCAR-4 is 25.8 µM (inactive); with M14, > 100 µM (inactive); with U-251, 46.6 µM (inactive); in the test on COLO 205, > 100 µM (inactive).
As for `CN1c2ccccc2NC(CC(=O)O)C2CC=CN21` (stereo not given), the GI50 with A498, with SNB-19, in the test on OVCAR-3, with NCI-H522, in the test with HL-60 and with KM12 was > 100 µM (inactive) each time. Moreover, the GI50 with UACC-62, with MOLT-4, in the test with CCRF-CEM, in the test on LXFL 529, with SNB-75 and in the test on OVCAR-5 was > 100 µM (inactive) each time. Besides, the GI50 in the test on OVCAR-4, in the test on M14, in the test on U-251 and in the test with COLO 205 was > 100 µM (inactive) in each case.
`COc1cc(C(C)O)c[n+](Cc2ccccc2)c1` (stereo not given): the GI50 in the test with A498, in the test on SNB-19, in the test with OVCAR-3, with NCI-H522, with HL-60 and in the test with KM12 was > 100 µM (inactive) in each case. For the same compound, the GI50 with UACC-62, with MOLT-4, in the test on CCRF-CEM, in the test with LXFL 529, with SNB-75 and in the test with OVCAR-5 was > 100 µM (inactive) in each case. Besides, the GI50 with OVCAR-4, in the test with M14, in the test with U-251 and in the test on COLO 205 was > 100 µM (inactive) each time.
